{"source": "patent US20200108066A1", "about": "“METHODS FOR MODULATING REGULATORY T CELLS AND IMMUNE RESPONSES USING CDK4/6 INHIBITORS” (Dana-Farber Cancer Institute, Inc., priority 2017, published 2020)", "key": {"[1]": {"tested_on": "MMTV-rtTA/tetO-HER2 tumors", "assay": "Tumor growth in MMTV-rtTA/tetO-HER2 transgenic mice", "assay_type": "in vivo, mouse", "conditions": "bulky tumors growing prior to treatment; three independent experiments", "text": "Tumor formation was induced in MMTV-rtTA/tetO-HER2 mice with doxycycline as previously described in Goel et al. (2016) Cancer Cell 29:255-269. Female FVB mice (7 weeks of age) were purchased from Taconic Biosciences (Hudson, N.Y.). Female J:NU nude mice (8 weeks of age) were purchased from Jackson Labs (Bar Harbor, Me.). FVB CD45.2+ mice used as a source of T cells for in vitro studies were a kind gift from Dr. Daniel Tenen. For tumor growth studies in J:NU mice, MMTV-rtTA/tetO-HER2 tumor explants were orthotopically implanted bilaterally into nude mice, as previously described in Goel et al. (2016), supra. […] For tumor experiments in transgenic MMTV-rtTA/tetO-HER2 mice, tumors measured between 5 mm and 15 mm when treatment was begun. Mice were assigned into treatment groups so that the distribution of tumor volumes was even between groups. Tumor volume was calculated as previously described in Goel et al. (2016), supra and tumors were measured by caliper 2-3 times per week. For tumor growth curve analysis, one-way ANOVA tests were performed with correction for multiple comparisons using Sidak's multiple comparisons test. […]"}, "[2]": {"tested_on": "MMTV-rtTA/tetO-HER2 tumors", "assay": "Gene expression (transcriptome, qPCR) in MMTV-rtTA/tetO-HER2 tumor tissue", "assay_type": "in vivo, mouse"}, "[3]": {"assay": "Plasma autoantibody ELISAs (anti-ANA, anti-dsDNA)", "assay_type": "in vivo, mouse", "conditions": "tumor-free and tumor-bearing mice, 12 days", "description": "For the last 24 hours, the culture media was replaced with serum free media. Following concentration of conditioned media using Amicon® Ultra centrifugal filters (Millipore, Billerica, Mass.), cytokines were analyzed according to the manufacturer's recommendations using the following kits: human IFN gamma ELISA Ready-SET-Go!® (Affymetrix eBioscience), human TNF alpha ELISA Ready-SET-Go!® (Affymetrix eBioscience), Verikine human IFN alpha ELISA kit (PBL assay science, Piscataway, N.J.), VeriKine-HS human IFN beta serum ELISA kit (PBL assay science), human IL-28B quantikine ELISA kit (R&D Systems, Minneapolis, Minn.), human […] Systems), and human IL-29 DuoSet ELISA (R&D Systems). Anti-ANA and anti-dsDNA ELISAs (Alpha Diagnostic, San Antonio, Tex.) were performed according to the manufacturer's instructions on plasma isolated from tumor free or tumor-bearing mice. Absorbance was measured on a SynergyTM Neo plate reader (BioTek, Winooski, Vt.) using Gen5TM software."}, "[4]": {"tested_on": "tumor-infiltrating CD8+ and CD4+ T cells", "assay": "Inhibitory co-receptor expression on intratumoral T cells (flow cytometry)", "assay_type": "in vivo, mouse", "description": "Tumors were first mechanically disrupted by chopping, then chemically digested in dissociation buffer (2 mg/mL collagenase type IV (Worthington Biochemical, Lakewood, N.J.), 0.02 mg/mL DNase (Sigma Aldrich) in DMEM (Life Technologies) containing 5% FBS (Life Technologies), PenStrep (Hyclone)) with agitation at 37° C. for 45 minutes. After RBC lysis, single cell suspensions were blocked with anti-CD16/32 for 20 minutes on ice. Then, cells were incubated with the appropriate antibodies for 30 minutes on ice.\n(§1) Murine antibodies used for flow cytometry include those recognizing CD45 (clone 30-F11), CD3 (clone 145-2C11), CD8 (clone 53-6.7), CD4 (clone RM4-5), PD-1 (clone 29F.1A12), Tim-3 (clone RMT3-23), CTLA-4 (clone UC10-4B9), LAG-3 (clone C9B7W), B220 (clone RA3-6B2), NK1.1 (clone PK136), CD11b (clone M1/70), Ly6G (clone 1A8), Ly6C (clone AL-21), FoxP3 (clone FJK-16s), and Ki-67 (clone 16A8). Human antibodies used for flow cytometry were those recognizing β2-microglobulin (clone 2M2) and HLA-A, B, C (clone W6/32). Antibodies were purchased from Biolegend with the exception of anti-FoxP3 from eBioscience and anti-Ly6C from BD Pharmigen. All antibodies used for flow cytometry were directly conjugated to fluorophores. The anti-mouse/rat FoxP3 staining set (eBioscience) was used for intracellular staining according to the manufacturer's instructions. 7AAD was used to distinguish live/dead cells, except for analyses requiring intracellular staining when eFluor® 450 fixable viability dye (eBioscience) or Zombie Yellow™ fixable viability dye (Biolegend) were used. To determine the absolute number of cells in a sample, CountBright™ absolute counting beads (Molecular Probes, ThermoFisher) were added. Flow cytometry was performed on a LSRII (BD Biosciences, San Jose, Calif.) or FACSCANTOII (BD Biosciences), and data was analyzed using FlowJo® (TreeStar).\nFurthermore, the mRNA level of Ifng (the main effector cytokine of cytotoxic T cells) was more than 4-fold higher in treated bulk tumor tissue (FIG. 13D)."}, "[5]": {"tested_on": "MMTV-rtTA/tetO-HER2 tumors", "assay": "Combined abemaciclib and anti-PD-L1 therapy in MMTV-rtTA/tetO-HER2 tumor bearing mice", "assay_type": "in vivo, mouse", "description": "After 3 days, the dose was dropped to 75 mg/kg daily and treatment with an anti-PD-L1 antibody (200 μg by intraperitoneal injection every 72 hours; BioXcell, clone 10F.9G2) or an isotype control antibody (200 μg by intraperitoneal injection every 72 hours) was commenced. Mice were euthanized using CO2 inhalation, and all mouse experiments were performed in accordance with protocols approved by the Institutional Animal Care and Use Committees of Dana-Farber Cancer Institute, Harvard Medical School, and Boston Children's Hospital."}, "MDA-MB-453 cells": {"tested_on": "MDA-MB-453 cells", "assay": "Expression analysis (transcriptome, qPCR, Western blot, ELISA) in MDA-MB-453 cells treated in vitro", "assay_type": "cell-based, human", "conditions": "SASP gene, abemaciclib 500 nM, 7 days, relative to DMSO"}, "thymocytes": {"tested_on": "thymocytes", "assay": "Thymic mass and thymic cell populations in tumor-free FVB mice", "assay_type": "in vivo, mouse", "conditions": "12 days", "description": "FIG. 10 includes 9 panels, identified as panels A, B, C, D, E, F, G, H, and I, which show the impact of CDK4/6 inhibition on immune cell populations and Treg biology. […] Panel C compares thymic mass with or without abemaciclib/palbociclib treatment. Thymic cell populations were quantified by flow cytometry.\nFollowing mechanical digestion and RBC lysis, single cell suspensions were blocked with anti-CD16/32 for 20 minutes on ice. Cells were incubated with appropriate antibodies for 30 minutes on ice.\nas §1, with “The anti-mouse/rat FoxP3 staining set (eBioscience) was used for intracellular staining according to the manufacturer's instructions. 7AAD was used to distinguish live/dead cells, except for analyses requiring intracellular staining when eFluor® 450 fixable viability dye (eBioscience) or Zombie Yellow™ fixable viability dye (Biolegend) were used. To determine the absolute number of cells in a sample, CountBright™ absolute counting beads (Molecular Probes, ThermoFisher) were added.” left out"}, "[6]": {"tested_on": "MDA-MB-453 and BT474 cells", "assay": "Doxorubicin-induced senescence", "assay_type": "cell-based, human", "conditions": "doxorubicin 200 nM 24 h, RNA 72 hours later", "description": "MDA-MB-453 and BT474 cells were treated with doxorubicin (Sigma Aldrich, 200 nM) for a period of 24 hrs. The cells were then cultured in fresh media for 72 hours after treatment, and RNA was extracted for qPCR."}}}
{"molecule": "CCN1CCN(Cc2ccc(Nc3ncc(F)c(-c4cc(F)c5nc(C)n(C(C)C)c5c4)n3)nc2)CC1", "note": "[abemaciclib]", "values": [{"measurement": "average reduction in tumor volume at the 12-day end point", "setting": "[1]", "result": 40, "unit": "%"}, {"measurement": "Fold change (abema vs DMSO treatment): COL1A1", "setting": "[2]; SASP gene, MMTV-rtTA/tetO-HER2 tumors, abemaciclib 12 days, relative to vehicle", "result": 1.207, "unit": "fold"}, {"measurement": "mRNA level of Ifng in bulk tumor tissue, treated vs vehicle", "setting": "[2]; qPCR", "result": "more than 4 fold"}, {"measurement": "autoimmune phenotype: anti-nuclear antibody (ANA) or anti-dsDNA antibody levels", "setting": "[3]", "result": "No associated increases"}, {"measurement": "fractions of PD-1high and PD-1+/TIM-3+ cytotoxic T cells", "setting": "[4]; 6 days treatment vs vehicle", "result": "significantly reduced"}, {"measurement": "number of inhibitory receptors detected on any given cytotoxic T cell", "setting": "[4]; 6 days treatment vs vehicle", "result": "lower"}, {"measurement": "reduction of PD-1+/TIM-3+ cytotoxic T cell fraction", "setting": "[4]; 6 days treatment vs vehicle", "result": 50, "unit": "%"}, {"measurement": "CD8+ cells expressing none of the inhibitory receptors", "setting": "[4]; abemaciclib treated tumors, 6 days", "result": "over 50%"}, {"measurement": "average reduction in tumor volume at day 13 of treatment", "setting": "[5]", "result": 35, "unit": "%"}, {"measurement": "Fold change (abema vs DMSO treatment): COL1A1", "setting": "MDA-MB-453 cells", "result": 0.752, "unit": "fold"}, {"measurement": "total thymic mass", "setting": "thymocytes", "result": "significantly reduced"}]}
{"molecule": "CC(=O)c1c(C)c2cnc(Nc3ccc(N4CCNCC4)cn3)nc2n(C2CCCC2)c1=O", "note": "[palbociclib]", "values": [{"measurement": "total thymic mass", "setting": "thymocytes", "result": "significantly reduced"}]}
{"molecule": "COc1cccc2c1C(=O)c1c(O)c3c(c(O)c1C2=O)C[C@@](O)(C(=O)CO)C[C@@H]3O[C@H]1C[C@H](N)[C@H](O)[C@H](C)O1", "note": "[doxorubicin]", "values": [{"measurement": "beta galactosidase and interleukin-6 expression", "setting": "[6]", "result": "increased"}]}
